In assay [1] the test system is BJ. Description: cytotoxicity toward BJ-TERT fibroblasts, dose response, cell-based, RAS-independent, luminescence (AID 1933). The settings on record: Homo sapiens. In kind it is functional.
Assay [2] in a line: Vero cell cytotoxicity, dose response, cytotoxicity control for Vif-APOBEC3G degradation inhibitor project, Vero cells (AID 1117358). In kind it is functional. The settings on record: Human immunodeficiency virus 1, Vero.
Assay [3] relates to BJ. Description: cytotoxicity toward BJ-TERT-LT-ST fibroblasts, dose response, cell-based, RAS-independent, luminescence (AID 1935).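 Further: BJ fibroblasts immortalized with TERT plus LT and ST oncogenes.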 In kind it is functional. As to conditions: Homo sapiens.
Assay [4] can be described thus: cytotoxicity toward DRD oncogenic fibroblasts, dose response, cell-based, non-viral oncogenic, luminescence (AID 1934). The format is functional. As to conditions: Homo sapiens.
In assay [5] the test system is BJ. Description: cells. The format is functional, cell-based. The settings on record: Homo sapiens.
The nature of assay [6]: inhibitors of PGC1a acetylation in cells, dose response, cell-based, cherry-picked samples (AID 720514).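 Further: potency may reflect raised or lowered acetylation signal.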 In kind it is functional.
Assay [7] can be described thus: NIH-3T3 fibroblast cytotoxicity, dose response, cytotoxicity control, cell-based, fluorescence, Alamar Blue, secondary assay (AID 2327).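 Further: NIH-3T3 mouse fibroblasts cultured with fluconazole at 8 µg/mL.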 In kind it is functional.
Assay [8] can be described thus: cytotoxicity toward NIH3T3 fibroblasts, dose response, counter-screen, cell-based, ATP luminescence, mouse fibroblasts (AID 2010).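 Further: cells exposed to compound for about 90 hours before reading.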 The format is functional. Background: A counterscreen serves to expose hits that act by an unwanted route or on another target.
Assay [9] is described as follows: Luminescence Cell-Based Dose Confirmation HTS to Identify Activators of 5'UTR Stem-Loop Driven Alpha-Synuclein mRNA Translation in H4 Neuroglioblastoma Cells. [Related pubchem assays: 1829 (Project Summary), 1814 (Primary HTS)]. The format is functional.
For another assay, the system named is H4. Description: Luminescence Cell-Based Dose Response HTS to Identify Activators of 5'UTR Stem-Loop Driven Prion Protein mRNA Translation in H4 Neuroglioblastoma Cells. [Related pubchem assays: 1829 (Project Summary), 1814 (Primary HTS)]. As to conditions: Homo sapiens. In kind it is functional.
Assay [10] concerns the target T1, Replicative DNA helicase DnaB (Mycobacterium tuberculosis, UniProt P9WMR3).
T1 sequence (P9WMR3 whole entry): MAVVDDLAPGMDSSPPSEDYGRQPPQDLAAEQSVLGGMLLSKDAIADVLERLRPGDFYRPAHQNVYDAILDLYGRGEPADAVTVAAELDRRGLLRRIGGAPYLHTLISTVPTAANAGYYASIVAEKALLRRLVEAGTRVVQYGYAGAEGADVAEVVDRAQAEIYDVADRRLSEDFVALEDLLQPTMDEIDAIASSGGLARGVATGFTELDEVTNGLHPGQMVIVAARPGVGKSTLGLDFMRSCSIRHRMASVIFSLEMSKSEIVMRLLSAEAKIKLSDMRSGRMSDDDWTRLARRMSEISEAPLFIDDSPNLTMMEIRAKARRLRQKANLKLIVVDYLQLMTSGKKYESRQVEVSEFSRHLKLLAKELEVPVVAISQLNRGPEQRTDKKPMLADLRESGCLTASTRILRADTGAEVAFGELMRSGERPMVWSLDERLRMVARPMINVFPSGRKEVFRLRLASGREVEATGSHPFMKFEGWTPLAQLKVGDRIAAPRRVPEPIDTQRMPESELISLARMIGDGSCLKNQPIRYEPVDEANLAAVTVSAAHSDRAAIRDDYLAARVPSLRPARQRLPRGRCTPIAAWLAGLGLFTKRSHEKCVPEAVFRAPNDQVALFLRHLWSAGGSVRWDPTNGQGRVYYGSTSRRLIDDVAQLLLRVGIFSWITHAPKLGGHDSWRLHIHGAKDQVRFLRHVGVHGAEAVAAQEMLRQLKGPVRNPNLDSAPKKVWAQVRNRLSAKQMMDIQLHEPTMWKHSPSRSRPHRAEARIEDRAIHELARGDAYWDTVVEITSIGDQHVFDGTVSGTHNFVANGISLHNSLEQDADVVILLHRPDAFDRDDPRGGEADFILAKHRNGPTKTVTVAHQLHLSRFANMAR
Description: DnaB intein splicing inhibitors, dose response, biochemical, cell-free fluorescence (AID 449749). In kind it is functional.

Assay [11] is described as follows: Luminescence Cell-Based Dose Response HTS to Identify Activators of Luciferase Translation or Activity in H4 […] Cells. [Related pubchem assays: 1829 (Project Summary), 1814 (Primary HTS)]. The format is functional.
The target of a further assay is T2, Protein RecA (Mycobacterium tuberculosis, UniProt P9WHJ3).
T2 sequence (P9WHJ3 whole entry): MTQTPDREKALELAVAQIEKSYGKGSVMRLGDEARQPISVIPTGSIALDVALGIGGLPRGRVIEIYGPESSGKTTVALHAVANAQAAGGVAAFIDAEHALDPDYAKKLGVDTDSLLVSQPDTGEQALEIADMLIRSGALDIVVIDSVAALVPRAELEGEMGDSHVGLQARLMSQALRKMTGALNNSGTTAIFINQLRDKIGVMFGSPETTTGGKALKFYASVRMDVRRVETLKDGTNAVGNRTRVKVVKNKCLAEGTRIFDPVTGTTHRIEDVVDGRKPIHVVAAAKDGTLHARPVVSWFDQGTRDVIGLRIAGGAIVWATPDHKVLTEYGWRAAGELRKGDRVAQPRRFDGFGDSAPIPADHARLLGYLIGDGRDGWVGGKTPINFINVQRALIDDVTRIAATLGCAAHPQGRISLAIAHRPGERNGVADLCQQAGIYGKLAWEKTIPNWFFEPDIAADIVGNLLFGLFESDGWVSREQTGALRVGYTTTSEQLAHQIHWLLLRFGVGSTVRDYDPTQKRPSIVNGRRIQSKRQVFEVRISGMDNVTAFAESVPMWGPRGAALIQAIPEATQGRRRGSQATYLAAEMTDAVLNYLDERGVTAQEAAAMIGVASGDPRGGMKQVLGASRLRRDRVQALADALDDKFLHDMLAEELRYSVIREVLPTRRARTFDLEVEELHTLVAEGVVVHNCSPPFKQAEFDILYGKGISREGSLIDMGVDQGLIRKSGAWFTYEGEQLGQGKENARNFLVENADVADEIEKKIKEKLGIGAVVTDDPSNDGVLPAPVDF
Description: Fluorescence Cell-Free Homogeneous Dose Retest to Identify Inhibitors of RecA-Intein Splicing Activity. [Related pubchem assays (depositor defined):AID2097, AID2223, AID489010, AID492950]. The format is functional.

Assay [12] in a line: inhibitors of intracellular T. cruzi replication, confirmation, NIH3T3 host cells, beta-gal luminescence (AID 2044).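 Further: intracellular parasites grown in NIH/3T3 mouse fibroblasts as host cells; luminescent beta-galactosidase reporter signal from transgenic T. cruzi replicating inside host cells; inhibitors lower the luminescence signal.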 In kind it is functional, cell-based.
Assay [13] can be described thus: C. albicans growth with fluconazole, confirmation, fluorescence, retest (AID 2467). The format is functional, cell-based.
A further assay has as its target Protein Tat (Human immunodeficiency virus type 1 group M subtype B (isolate HXB2)(HIV-1), UniProt P04608). The format is functional.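 Further: tat binding to TAR RNA read out by fluorescence polarization.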
Assay [14] addresses T3, Oxysterols receptor LXR-beta (Homo sapiens, UniProt P55055).
T3 sequence (P55055 whole entry): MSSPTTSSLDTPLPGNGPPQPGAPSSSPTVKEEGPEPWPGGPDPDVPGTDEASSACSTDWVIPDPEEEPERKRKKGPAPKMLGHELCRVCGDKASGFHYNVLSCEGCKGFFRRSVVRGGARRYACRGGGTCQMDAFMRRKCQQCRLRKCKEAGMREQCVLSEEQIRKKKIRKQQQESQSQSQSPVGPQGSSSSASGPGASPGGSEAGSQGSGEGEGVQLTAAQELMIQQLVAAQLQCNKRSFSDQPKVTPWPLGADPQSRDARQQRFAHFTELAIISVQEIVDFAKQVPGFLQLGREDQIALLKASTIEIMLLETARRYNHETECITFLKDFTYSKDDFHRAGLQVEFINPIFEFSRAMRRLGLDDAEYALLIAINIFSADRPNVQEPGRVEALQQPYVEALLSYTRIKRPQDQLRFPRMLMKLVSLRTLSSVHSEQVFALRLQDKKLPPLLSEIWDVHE
The format is functional, cell-based.

A short description of assay [15]: Luminescence Cell-Based Dose Confirmation HTS to Identify Inhibitors of Platelet Dense Granule Release. [Related pubchem assays: 1663 (Primary HTS), 1678 (Summary of Project)]. In kind it is functional.
For assay [16], the target named is T3, Oxysterols receptor LXR-beta. Description: LXR agonists, Gal4 luciferase reporter, dose response, counter-screen for ssDAF-12 agonist project, cell-based, luminescence, HEK293, S. stercoralis campaign (AID 720737). The settings on record: read-out: IC50 (the source's name). In kind it is functional.
In assay [17] the target is Luciferin 4-monooxygenase (Photinus pyralis, UniProt P08659). As to the kind of experiment: firefly luciferase enzyme inhibitors, dose response, biochemical, luminescence (AID 1891).
Luciferin 4-monooxygenase, sequence (P08659 whole entry): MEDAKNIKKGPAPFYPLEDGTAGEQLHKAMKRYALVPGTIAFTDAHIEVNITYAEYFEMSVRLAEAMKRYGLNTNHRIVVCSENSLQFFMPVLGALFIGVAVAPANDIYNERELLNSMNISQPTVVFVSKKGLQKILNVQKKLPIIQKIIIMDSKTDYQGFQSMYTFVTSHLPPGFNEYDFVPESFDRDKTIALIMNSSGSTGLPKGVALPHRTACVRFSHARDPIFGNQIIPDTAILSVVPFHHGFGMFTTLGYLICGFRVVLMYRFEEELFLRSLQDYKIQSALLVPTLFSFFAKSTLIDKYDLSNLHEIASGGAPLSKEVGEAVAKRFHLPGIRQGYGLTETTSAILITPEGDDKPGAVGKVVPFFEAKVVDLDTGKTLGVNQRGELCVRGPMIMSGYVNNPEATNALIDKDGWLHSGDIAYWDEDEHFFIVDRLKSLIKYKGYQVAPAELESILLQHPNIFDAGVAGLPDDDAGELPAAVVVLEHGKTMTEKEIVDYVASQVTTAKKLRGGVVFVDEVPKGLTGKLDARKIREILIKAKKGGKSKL
A short description of assay [18]: Luminescence-based cell-based high throughput dose response assay to identify activators of the DAF-12 from the parasite S. stercoralis (ssDAF-12). In kind it is functional.
Assay [19] concerns the target T4, SUMO-activating enzyme (Homo sapiens, UniProt Q9UBT2). As to the kind of experiment: SUMOylation inhibitor hit validation, confirmation, SUMOylation inhibitor project, biochemical, AlphaScreen (AID 2018). In kind it is functional.
The target in assay [20] is T4, SUMO-activating enzyme. Description: inhibitors of in vitro SUMOylation cascade, primary screen, biochemical, HTRF, uHTS (AID 2006). In kind it is protein-complex assay. (In general: In TR-FRET formats the signal depends on donor and acceptor labels being close together.)
A further assay addresses Large T antigen (Simian virus 40, UniProt P03070). In kind it is functional, Betapolyomavirus macacae.

Experimental findings from ChEMBL document CHEMBL1201862, “PubChem BioAssay data set” (2004) are described below.

The source made the active and inactive calls. For most assays here, no stated cut-off is given here; in the data, actives have a measured EC50 and inactives only a lower limit.

One may read the CC50 as the concentration giving 50% cytotoxicity. By AC50 is commonly meant the midpoint of the concentration-response curve, whichever way the signal moves. For orientation: IC50 means the concentration needed to halve the response being measured.

T4 sequence (Q9UBE0 whole entry): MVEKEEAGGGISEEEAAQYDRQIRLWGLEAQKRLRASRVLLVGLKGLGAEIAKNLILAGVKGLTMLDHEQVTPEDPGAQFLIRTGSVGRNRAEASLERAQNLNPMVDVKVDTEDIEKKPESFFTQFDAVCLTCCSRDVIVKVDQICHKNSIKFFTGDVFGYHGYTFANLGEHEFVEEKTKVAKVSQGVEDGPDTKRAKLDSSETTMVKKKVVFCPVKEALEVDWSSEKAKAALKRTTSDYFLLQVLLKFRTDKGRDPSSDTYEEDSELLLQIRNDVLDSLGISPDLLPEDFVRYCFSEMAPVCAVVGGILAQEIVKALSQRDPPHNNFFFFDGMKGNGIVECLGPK
T4 sequence (Q9UBT2 whole entry): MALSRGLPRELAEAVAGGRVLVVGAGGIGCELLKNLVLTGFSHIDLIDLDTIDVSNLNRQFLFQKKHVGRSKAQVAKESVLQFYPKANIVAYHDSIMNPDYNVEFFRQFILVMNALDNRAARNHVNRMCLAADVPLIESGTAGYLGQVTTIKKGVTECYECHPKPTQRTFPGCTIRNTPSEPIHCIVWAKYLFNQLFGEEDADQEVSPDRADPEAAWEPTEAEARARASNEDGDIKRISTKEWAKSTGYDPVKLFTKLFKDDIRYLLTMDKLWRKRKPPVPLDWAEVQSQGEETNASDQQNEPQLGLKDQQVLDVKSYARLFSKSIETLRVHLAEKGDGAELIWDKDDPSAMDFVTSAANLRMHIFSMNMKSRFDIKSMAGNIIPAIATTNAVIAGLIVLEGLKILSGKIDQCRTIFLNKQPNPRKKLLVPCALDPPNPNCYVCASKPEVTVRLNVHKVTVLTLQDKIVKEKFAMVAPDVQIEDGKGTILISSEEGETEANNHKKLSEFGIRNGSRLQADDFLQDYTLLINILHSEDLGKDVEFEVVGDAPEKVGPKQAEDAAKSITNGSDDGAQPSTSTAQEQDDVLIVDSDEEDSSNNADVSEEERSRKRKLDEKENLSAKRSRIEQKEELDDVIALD
Protein Tat, sequence (P04608 whole entry): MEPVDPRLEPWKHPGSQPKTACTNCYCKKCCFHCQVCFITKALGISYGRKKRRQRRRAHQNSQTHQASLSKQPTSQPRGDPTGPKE
Large T antigen, sequence (P03070 whole entry): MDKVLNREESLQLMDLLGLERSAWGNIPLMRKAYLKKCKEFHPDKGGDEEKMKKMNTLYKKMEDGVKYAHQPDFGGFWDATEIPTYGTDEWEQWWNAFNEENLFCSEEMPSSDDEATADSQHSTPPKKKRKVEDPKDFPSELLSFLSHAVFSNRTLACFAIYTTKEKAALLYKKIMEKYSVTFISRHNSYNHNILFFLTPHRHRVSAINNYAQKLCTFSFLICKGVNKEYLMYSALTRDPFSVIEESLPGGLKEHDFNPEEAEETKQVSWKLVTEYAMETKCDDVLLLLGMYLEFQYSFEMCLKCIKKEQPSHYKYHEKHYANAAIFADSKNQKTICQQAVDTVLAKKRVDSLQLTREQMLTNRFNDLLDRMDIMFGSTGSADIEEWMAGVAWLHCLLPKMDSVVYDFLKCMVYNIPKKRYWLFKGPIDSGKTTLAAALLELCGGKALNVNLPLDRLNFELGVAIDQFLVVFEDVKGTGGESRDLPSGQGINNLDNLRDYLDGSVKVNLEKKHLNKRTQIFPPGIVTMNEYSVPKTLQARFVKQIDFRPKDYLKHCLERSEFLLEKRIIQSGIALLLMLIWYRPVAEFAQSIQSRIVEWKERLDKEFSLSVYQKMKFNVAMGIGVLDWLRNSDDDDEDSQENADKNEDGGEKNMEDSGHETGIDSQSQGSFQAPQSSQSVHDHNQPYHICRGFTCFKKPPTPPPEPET

For `CCCOc1ccccc1C1CC(=O)NC2=C1C(=O)CCC2` (configuration not stated), the EC50 is 16 µM (active) with BJ [1], 17.2 µM (active) with BJ [3], 32.7 µM (active) in [4] and 44.4 µM (active) in the assay on BJ [5]. Further, in [2], the half-maximal cytotoxic concentration (CC50) is > 40 µM (active).

On to `O=C(OCn1ncc(Cl)c(Cl)c1=O)c1ccc(C(F)(F)F)cc1`, for which the results for the AC50 in [6] and in assay [10] were 20.6 µM (active) and 1.23 µM (active), respectively. In addition, the EC50 was 4.13 µM (inconclusive) in assay [7]; 1.89 µM (active) in assay [8]; > 120 µM (not active) in assay [9]; > 120 µM (not active) in the assay with H4; > 120 µM (not active) in assay [11]; 0.308 µM (active) at Protein RecA. The EC50 in [12] was 1.92 µM (active); in assay [13], > 38 µM (not active).

In the case of `Nc1ccccc1NC1=CC(=O)CC(c2ccco2)C1` (configuration not stated), the IC50 at Protein Tat was 31.6 µM (inconclusive).

In the case of `Oc1c(N=Nc2ccccc2)sc2ccccc12`, the EC50 in assay [14] was > 67.5 µM (inactive); in [15], 15 µM (active); in assay [16], > 67.5 µM (inactive); in the assay “cells”, > 67.5 µM (inactive); in [17] it was 1.26 µM (active). The IC50 in assay [18] was > 67.5 µM (inactive).

`Cc1ccsc1/C=N/c1ccc(O)cc1`: the IC50 was 30.5 µM (inconclusive) at Protein Tat, 2.36 µM (active) on SUMO-activating enzyme [19], 9.41 µM (active) at SUMO-activating enzyme [20] and 31.2 µM (active) at Large T antigen. For the same compound, the EC50 on Protein RecA was > 380 µM (inconclusive).
